Our source for the IC50 values is patent publication US8586550B2, “Thiazole derivatives as SGLT2 inhibitors and pharmaceutical composition comprising same” (Green Cross Corporation, priority 2010, dated 2013).

This assay concerns the target T1, Human SGLT2 (hSGLT2) (Homo sapiens, UniProt P31639).
T1 construct: expressed in transfected cells
T1 sequence (P31639 1-672): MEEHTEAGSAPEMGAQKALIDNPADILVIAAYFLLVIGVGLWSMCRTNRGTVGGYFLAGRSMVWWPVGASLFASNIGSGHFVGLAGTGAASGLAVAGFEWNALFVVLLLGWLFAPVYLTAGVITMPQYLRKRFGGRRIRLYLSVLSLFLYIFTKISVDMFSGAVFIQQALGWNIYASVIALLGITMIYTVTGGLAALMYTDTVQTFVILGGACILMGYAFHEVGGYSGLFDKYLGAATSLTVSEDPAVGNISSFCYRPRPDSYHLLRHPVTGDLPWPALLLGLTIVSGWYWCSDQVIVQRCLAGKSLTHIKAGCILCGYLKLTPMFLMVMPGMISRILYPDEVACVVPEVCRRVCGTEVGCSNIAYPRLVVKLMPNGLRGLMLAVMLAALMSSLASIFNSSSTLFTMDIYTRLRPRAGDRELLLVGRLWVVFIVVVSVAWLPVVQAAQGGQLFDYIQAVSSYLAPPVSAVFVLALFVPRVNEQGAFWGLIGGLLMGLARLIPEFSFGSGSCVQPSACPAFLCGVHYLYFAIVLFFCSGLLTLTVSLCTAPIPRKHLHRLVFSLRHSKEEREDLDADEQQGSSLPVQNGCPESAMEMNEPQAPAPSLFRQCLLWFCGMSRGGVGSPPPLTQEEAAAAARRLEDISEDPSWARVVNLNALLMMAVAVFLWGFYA
As to the kind of experiment: Sodium-dependent glucose transport (14C-AMG uptake) assay in CHO cells stably expressing hSGLT2. It is filed as cell-based. As to conditions: CHO cells expressing hSGLT2, 14C-AMG uptake, 37° C. for 2 h; single determinations; read-out: hSGLT2 Inhibitory Activity IC50. In a few lines:
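CHO cells stably expressing human SGLT2, preincubated 10 min at 37 °C in sodium-free choline buffer, then 2 h at 37 °C in Na+ buffer with 1 mM AMG plus 8 μM 14C-AMG and inhibitor. Washed cells counted by scintillation; IC50 by nonlinear regression.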

With `OC[C@H]1O[C@@H](c2cc(Cc3ncc(-c4ccc(F)cc4)s3)c(O)c3ccccc23)[C@H](O)[C@@H](O)[C@@H]1O` [Example 123, (2S,3R,4R,5S,6R)-2-(3-((5-(4-Fluorophenyl)thiazol-2-yl)methyl)-4-hydroxynaphthalen-1-yl)-6-(hydroxymethyl)-tetrahydro-2H-pyran-3,4,5-triol], the IC50 was 58.2 nM.

Turning to `CCCc1cnc(Cc2cn([C@@H]3O[C@H](CO)[C@@H](O)[C@H](O)[C@H]3O)c3ccccc23)s1` [Example 134, (2R,3S,4S,5R,6R)-2-(Hydroxymethyl)-6-(3((5-propylthiazol-2-yl)methyl)-1H-indol-1-yl)tetrahydro-2H-pyran-3,4,5-triol], the IC50 turned out to be 108 nM.

A word on the IC50: it is the concentration needed to halve the response being measured.
